Test results: patent US7932270B2 (Cytokinetics, Inc., priority 2006, dated 2011)

Target: T1, chicken gizzard smooth muscle myosin subfragment-1 chemically crosslinked to cardiac or skeletal actin (Gallus gallus, UniProt P10587)
T1 construct: chicken gizzard smooth muscle myosin subfragment-1; from tissue; host or cells: chicken gizzard
Assay: Smooth muscle myosin ATPase dose response assay (pyruvate kinase/horseradish peroxidase/pyruvate oxidase-coupled, amplex red fluorescence)
Assay type: biochemical
Settings: read-out: IC50 Arithmetic Mean
Summary of the method: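 Chicken gizzard myosin S1 crosslinked to cardiac or skeletal actin, titrated to a set hydrolysis rate; 0.15 mM ATP, 12 mM PIPES pH 7.00, 100 mM KCl, 2 mM MgCl2. Pyruvate kinase/pyruvate oxidase/HRP coupling with amplex red fluorescence; IC50 from 4-parameter fit.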

T1 sequence (P02607 2-151): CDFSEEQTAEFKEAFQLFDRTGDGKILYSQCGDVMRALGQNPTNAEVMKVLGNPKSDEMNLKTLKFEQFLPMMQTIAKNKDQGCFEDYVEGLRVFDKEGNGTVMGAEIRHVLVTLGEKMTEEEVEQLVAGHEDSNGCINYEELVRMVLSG
T1 sequence (P10587 84-789): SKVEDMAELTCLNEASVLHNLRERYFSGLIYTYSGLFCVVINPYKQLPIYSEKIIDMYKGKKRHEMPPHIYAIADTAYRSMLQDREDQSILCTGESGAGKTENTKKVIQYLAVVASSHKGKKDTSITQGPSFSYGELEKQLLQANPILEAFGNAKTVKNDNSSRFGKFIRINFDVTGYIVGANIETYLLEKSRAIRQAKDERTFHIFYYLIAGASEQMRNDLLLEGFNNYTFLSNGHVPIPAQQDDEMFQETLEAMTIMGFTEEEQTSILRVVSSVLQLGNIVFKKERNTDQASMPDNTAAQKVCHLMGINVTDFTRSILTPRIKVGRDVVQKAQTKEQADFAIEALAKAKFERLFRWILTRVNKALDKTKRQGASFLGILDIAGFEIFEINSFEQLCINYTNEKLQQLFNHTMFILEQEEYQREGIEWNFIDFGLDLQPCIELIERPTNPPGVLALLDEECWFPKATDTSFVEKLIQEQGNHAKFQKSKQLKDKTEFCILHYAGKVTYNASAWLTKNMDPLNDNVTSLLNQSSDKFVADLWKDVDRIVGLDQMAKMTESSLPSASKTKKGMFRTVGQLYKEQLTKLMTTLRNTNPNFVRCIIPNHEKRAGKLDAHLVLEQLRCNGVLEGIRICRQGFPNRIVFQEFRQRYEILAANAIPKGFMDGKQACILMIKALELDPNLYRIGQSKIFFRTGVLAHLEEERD

| IC50 [nM] | Compound |
| --- | --- |
| 13300 | CC(C)NC(=O)c1ccc(-c2ccccc2)nc1NCCc1ccccn1 [N-(methylethyl){6-phenyl-2-[(2-(2-pyridyl)ethyl)amino](3-pyridyl)}carboxamide] |
| 4570 | N#Cc1ccccc1-c1ccc(C(=O)NC[C@@H]2CCCN2)c(NCCc2cccc(F)c2)n1 [N-[((2S)pyrrolidin-2-yl)methyl](6-(2-cyanophenyl)-2-{[2-(3-fluorophenyl)ethyl]amino}(3-pyridyl))carboxamide] |
| 20 | Cn1cc(-c2nc(NCCc3cccc(F)c3)c(C(=O)NCc3cc[nH]n3)cc2F)cn1 [(5-fluoro-2-{[2-(3-fluorophenyl)ethyl]amino}-6-(1-methylpyrazol-4-yl)(3-pyridyl))-N-(pyrazol-3-ylmethyl)carboxamide] |
| 3450 | CNC(=O)[C@H](CN)NC(=O)c1ccc(-c2ccccc2C#N)nc1NCCc1cccc(F)c1 [(2S)-3-amino-2-[(6-(2-cyanophenyl)-2-{[2-(3-fluorophenyl)ethyl]amino}(3-pyridyl))carbonylamino]-N-methylpropanamide] |
| 7440 | CC(=O)N1CCNC[C@@H]1CNC(=O)c1ccc(-c2ccccc2C#N)nc1NCCc1cccc(F)c1 [N-[((2R)-1-acetylpiperazin-2-yl)methyl](6-(2-cyanophenyl)-2-{[2-(3-fluorophenyl)ethyl]amino}(3-pyridyl))carboxamide] |
| 85 | N#Cc1ccccc1-c1ccc(C(=O)NC[C@H]2CCCN2C(=O)CCCO)c(NCCc2cccc(F)c2)n1 [N-{[(2R)-1-(4-hydroxybutanoyl)pyrrolidin-2-yl]methyl}(6-(2-cyanophenyl)-2-{[2-(3-fluorophenyl)ethyl]amino}(3-pyridyl))carboxamide] |
| 1910 | N#Cc1ccccc1-c1ccc(C(=O)NC(CCN)C(N)=O)c(NCCc2cccc(F)c2)n1 (centres unmarked) [N-(3-amino-1-carbamoylpropyl)(6-(2-cyanophenyl)-2-{[2-(3-fluorophenyl)ethyl]amino}(3-pyridyl))carboxamide] |
| 1640 | COC(=O)[C@H](CNC(=O)c1ccc(-c2ccccc2C#N)nc1NCCc1cccc(F)c1)NC(C)=O [methyl (2S)-2-(acetylamino)-3-[(6-(2-cyanophenyl)-2-{[2-(3-fluorophenyl)ethyl]amino}(3-pyridyl))carbonylamino]propanoate] |
| 370 | N#Cc1ccccc1-c1ccc(C(=O)NC[C@H]2CCCCN2S(=O)(=O)CCCN)c(NCCc2cccc(F)c2)n1 [N-({(2R)-1-[(3-aminopropyl)sulfonyl](2-piperidyl)}methyl)(6-(2-cyanophenyl)-2-{[2-(3-fluorophenyl)ethyl]amino}(3-pyridyl))carboxamide] |
| 32 | N#Cc1ccccc1-c1ccc(C(=O)NCCc2cccc(CN)n2)c(NCCc2cccc(F)c2)n1 [N-{2-[6-(aminomethyl)(2-pyridyl)]ethyl}(6-(2-cyanophenyl)-2-{[2-(3-fluorophenyl)ethyl]amino}(3-pyridyl))carboxamide] |
| 1020 | N#Cc1ccccc1-c1ccc(C(=O)N[C@@H](CO)C(N)=O)c(NCCc2cccc(F)c2)n1 [N-((1S)-1-carbamoyl-2-hydroxyethyl)(6-(2-cyanophenyl)-2-{[2-(3-fluorophenyl)ethyl]amino}(3-pyridyl))carboxamide] |
| 124 | O=C(NCc1cccnc1)c1ccc(-c2cc[nH]n2)nc1NCCc1cccc(F)c1 [(2-{[2-(3-fluorophenyl)ethyl]amino}-6-pyrazol-3-yl(3-pyridyl))-N-(3-pyridylmethyl)carboxamide] |
| 32200 | Cn1cnc(CCNc2nc(-c3ccccc3)ccc2C(=O)NCc2cccnc2)c1 [(2-{[2-(1-methylimidazol-4-yl)ethyl]amino}-6-phenyl(3-pyridyl))-N-(3-pyridylmethyl)carboxamide] |
| 318 | N#Cc1ccccc1-c1ccc(C(=O)NCCCO)c(NCCc2cccc(F)c2)n1 [(6-(2-cyanophenyl)-2-{[2-(3-fluorophenyl)ethyl]amino}(3-pyridyl))-N-(3-hydroxypropyl)carboxamide] |
| 321 | N#Cc1ccccc1-c1ccc(C(=O)NC[C@@H](N)C(N)=O)c(NCCc2cccc(F)c2)n1 [N-((2R)-2-amino-2-carbamoylethyl)(6-(2-cyanophenyl)-2-{[2-(3-fluorophenyl)ethyl]amino}(3-pyridyl))carboxamide] |
| 32 | Cn1ccc(-c2ccc(C(=O)NCc3cccnc3CN)c(NCCc3cccc(F)c3)n2)n1 [N-{[2-(aminomethyl)(3-pyridyl)]methyl}(2-{[2-(3-fluorophenyl)ethyl]amino}-6-(1-methylpyrazol-3-yl)(3-pyridyl))carboxamide] |

| IC50 [nM] | Compound |
| --- | --- |
| 1280 | CN1CCN(C(=O)CN)[C@@H](CNC(=O)c2ccc(-c3ccccc3C#N)nc2NCCc2cccc(F)c2)C1 [N-{[(2S)-1-(2-aminoacetyl)-4-methylpiperazin-2-yl]methyl}(6-(2-cyanophenyl)-2-{[2-(3-fluorophenyl)ethyl]amino}(3-pyridyl))carboxamide] |
| 234 | N#Cc1ccccc1-c1ccc(C(=O)NC[C@H]2CCCN2S(=O)(=O)CCCN)c(NCCc2cccc(F)c2)n1 [N-({(2R)-1-[(3-aminopropyl)sulfonyl]pyrrolidin-2-yl}methyl)(6-(2-cyanophenyl)-2-{[2-(3-fluorophenyl)ethyl]amino}(3-pyridyl))carboxamide] |
| 245 | COC(=O)N1CC[C@@H]1CNC(=O)c1ccc(-c2cn[nH]c2)nc1NCCc1cccc(F)c1 [methyl (2R)-2-{[(2-{[2-(3-fluorophenyl)ethyl]amino}-6-pyrazol-4-yl(3-pyridyl))carbonylamino]methyl}azetidinecarboxylate] |
| 624 | N#Cc1cc(C(=O)NC[C@H]2CCCN2)c(NCCc2cccc(F)c2)nc1-c1cn[nH]c1 [N-[((2R)pyrrolidin-2-yl)methyl](5-cyano-2-{[2-(3-fluorophenyl)ethyl]amino}-6-pyrazol-4-yl(3-pyridyl))carboxamide] |
| 420 | NCc1ccc(CNC(=O)c2ccc(-c3ccccc3)nc2NCCc2cccc(F)c2)cn1 [N-{[6-(aminomethyl)(3-pyridyl)]methyl}(2-{[2-(3-fluorophenyl)ethyl]amino}-6-phenyl(3-pyridyl))carboxamide] |
| 2290 | O=C(NCc1cccnc1)c1ccc(-c2ccc(C(F)(F)F)cc2)nc1NCCc1ccccn1 [{2-[(2-(2-pyridyl)ethyl)amino]-6-[4-(trifluoromethyl)phenyl](3-pyridyl)}-N-(3-pyridylmethyl)carboxamide] |
| 1520 | CS(=O)(=O)N1CC[C@@H]1CNC(=O)c1ccc(-c2ccccc2C#N)nc1NCCc1cccc(F)c1 [N-{[(2R)-1-(methylsulfonyl)azetidin-2-yl]methyl}(6-(2-cyanophenyl)-2-{[2-(3-fluorophenyl)ethyl]amino}(3-pyridyl))carboxamide] |
| 4640 | C[C@H](CNC(=O)c1cc(F)c(-c2cn[nH]c2)nc1NCCn1cccn1)NC(=O)CN |
| 15500 | COC(=O)c1cc(Cl)c(-c2cnn(C)c2)nc1NCCc1cccc(F)c1 [methyl 5-chloro-2-{[2-(3-fluorophenyl)ethyl]amino}-6-(1-methylpyrazol-4-yl)pyridine-3-carboxylate] |
| 3060 | CN1CCN(CCCNC(=O)c2ccc(-c3ccccc3C#N)nc2NCCc2cccc(F)c2)CC1 [(6-(2-cyanophenyl)-2-{[2-(3-fluorophenyl)ethyl]amino}(3-pyridyl))-N-[3-(4-methylpiperazinyl)propyl]carboxamide] |
| 50 | Cn1cc(-c2nc(NCCc3cccc(F)c3)c(C(=O)NCc3cccnc3CN)cc2C#N)cn1 [N-{[2-(aminomethyl)(3-pyridyl)]methyl}(5-cyano-2-{[2-(3-fluorophenyl)ethyl]amino}-6-(1-methylpyrazol-4-yl)(3-pyridyl))carboxamide] |
| 91 | N#Cc1ccccc1-c1ccc(C(=O)NC[C@H]2CCCCN2C(=O)OCCN)c(NCCc2cccc(F)c2)n1 [2-aminoethyl (2R)-2-{[(6-(2-cyanophenyl)-2-{[2-(3-fluorophenyl)ethyl]amino}(3-pyridyl))carbonylamino]methyl}piperidinecarboxylate] |
| 2380 | COC(=O)[C@@H](CN)NC(=O)c1ccc(-c2ccccc2C#N)nc1NCCc1cccc(F)c1 [methyl (2R)-3-amino-2-[(6-(2-cyanophenyl)-2-{[2-(3-fluorophenyl)ethyl]amino}(3-pyridyl))carbonylamino]propanoate] |
| 277 | CC(C)(CNC(=O)c1ccc(-c2ccccc2C#N)nc1NCCc1cccc(F)c1)NC(=O)CCCN |
| 3680 | C[C@H](CNC(=O)c1ccc(-c2ccccc2C#N)nc1NCCc1cccc(F)c1)N(C)C(=O)CCCNC(=O)OC(C)(C)C |
| 334 | CC(=O)N1CCC(CNC(=O)c2ccc(-c3ccccc3C#N)nc2NCCc2cccc(F)c2)C1 (centres unmarked) [N-[(1-acetylpyrrolidin-3-yl)methyl](6-(2-cyanophenyl)-2-{[2-(3-fluorophenyl)ethyl]amino}(3-pyridyl))carboxamide] |

| Compound | IC50 [nM] |
| --- | --- |
| CC[C@H](CNC(=O)c1cc(F)c(-c2cn[nH]c2)nc1NCCc1cccc(F)c1)NC(=O)CNC(=O)OC(C)(C)C [N-((1R)-1-{[(5-fluoro-2-{[2-(3-fluorophenyl)ethyl]amino}-6-pyrazol-4-yl(3-pyridyl))carbonylamino]methyl}propyl)-2-[(tert-butoxy)carbonylamino]acetamide] | 4320 |
| CN(CCNC(=O)c1ccc(-c2ccccc2C#N)nc1NCCc1cccc(F)c1)C(=O)CCCNC(=O)OC(C)(C)C [4-[(tert-butoxy)carbonylamino]-N-{2-[(6-(2-cyanophenyl)-2-{[2-(3-fluorophenyl)ethyl]amino}(3-pyridyl))carbonylamino]ethyl}-N-methylbutanamide] | 3880 |
| Cn1cc(-c2nc(NCCc3cccc(F)c3)c(C(=O)NC[C@H]3CCCN3C(=O)CNC(=O)OC(C)(C)C)cc2F)cn1 [N-[((2R)-1-{2-[(tert-butoxy)carbonylamino]acetyl}pyrrolidin-2-yl)methyl](5-fluoro-2-{[2-(3-fluorophenyl)ethyl]amino}-6-(1-methylpyrazol-4-yl)(3-pyridyl))carboxamide] | 625 |
